From ChEMBL document CHEMBL6087415, “Discovery of new fungal jumonji H3K27 demethylase inhibitors for the treatment of Cryptococcus neoformans and Candida auris infections” (Eur J Med Chem, 2025)
In brackets after ≈: the same amount, converted by molar mass. Activity calls are given as the source filed them. The rule behind the calls is not given here.

Tests used:
Cryptococcus neoformans [1] = assay: Antifungal activity against Cryptococcus neoformans H99 assessed as reduction in fungal growth incubated for 72 hrs in presence of 40 uM Fe2+; type: functional
[Candida] auris [2] = Fungicidal activity against Candida auris 0029; type: functional; conditions: Candidozyma auris
Cryptococcus neoformans [3] = assay: Effect on sterol composition in Cryptococcus neoformans H99 assessed as other sterols content at 1 microg/ml measured after 24 hrs by GC-MS analysis (reference value: 41.47%); type: functional; conditions: dose 1 µg/ml
[Candida] auris [4] = Effect on sterol composition in Candida auris 0029 assessed as ergosterol content at 1 microg/ml measured after 24 hrs by GC-MS analysis (reference value: 100 %); type: functional, Candidozyma auris; conditions: dose 1 µg/ml
[Candida] auris [5] = Antifungal activity against Candida auris 0029 assessed as inhibition of cell growth at 16 microg/ml measured for 72 hrs; type: functional; conditions: Candidozyma auris
Cryptococcus neoformans [6] = assay: Antibiofilm activity against Cryptococcus neoformans H99 assessed as inhibition of capsule formation at 4 microg/ml incubated for 48 hrs by laser confocal microscopic analysis; type: functional, organism-based; conditions: dose 4.0 µg/ml
Cryptococcus neoformans [7] = assay: Effect on sterol composition in Cryptococcus neoformans H99 assessed as lanosterol content at 1 microg/ml measured after 24 hrs by GC-MS analysis; type: functional; conditions: dose 1 µg/ml
Cryptococcus neoformans [8] = assay: Antifungal activity against Cryptococcus neoformans H99 assessed as reduction in fungal growth incubated for 72 hrs in presence of 1 uM Fe2+; type: functional
Cryptococcus neoformans [9] = assay: Antifungal activity against Cryptococcus neoformans H99 assessed as reduction in fungal growth incubated for 72 hrs in presence of 20 uM Fe2+; type: functional
Cryptococcus neoformans [10] = assay: Effect on sterol composition in Cryptococcus neoformans H99 assessed as ergosterol content at 1 microg/ml measured after 24 hrs by GC-MS analysis (reference value: 58.53%); type: functional; conditions: dose 1 µg/ml
Cryptococcus neoformans [11] = assay: Antifungal activity against Cryptococcus neoformans H99 assessed as reduction in fungal growth incubated for 72 hrs in presence of 10 uM Fe2+; type: functional
[Candida] auris [12] = Antifungal activity against Candida auris 0029 assessed as reduction in fungal growth; type: functional; conditions: Candidozyma auris
Cryptococcus neoformans [13] = assay: Antifungal activity against Cryptococcus neoformans H99 assessed as reduction in fungal growth incubated for 72 hrs in presence of 5 uM Fe2+; type: functional
[Candida] auris [14] = Antifungal activity against Candida auris ATCC 15448 assessed as reduction in fungal growth; type: functional; conditions: Candidozyma auris
Cryptococcus neoformans [15] = assay: Antifungal activity against Cryptococcus neoformans H99 assessed as reduction in fungal growth incubated for 72 hrs in presence of 80 uM Fe2+; type: functional
[Candida] auris [16] = Antibiofilm activity against Candida auris 0029 assessed as inhibition of biofilm formation at 64 microg/ml incubated for 24 hrs by XTT reduction assay; type: functional; conditions: Candidozyma auris
Cryptococcus neoformans [17] = assay: Antifungal activity against Cryptococcus neoformans H99 assessed as inhibition of cell growth at 16 microg/ml measured for 72 hrs; type: functional, organism-based; conditions: dose 16.0 µg/ml
Cryptococcus neoformans [18] = assay: Effect on sterol composition in Cryptococcus neoformans H99 assessed as eburicol content at 1 microg/ml measured after 24 hrs by GC-MS analysis; type: functional; conditions: dose 1 µg/ml
Cryptococcus neoformans [19] = assay: Fungicidal activity against Cryptococcus neoformans H99; type: functional
Cryptococcus neoformans [20] = assay: Antifungal activity against Cryptococcus neoformans H99 assessed as reduction in fungal growth; type: functional
[21] = Solubility of compound in MeOH/H2O at pH 7 by HPLC analysis; type: physicochemical
[22] = Cytotoxicity against HUVEC cells; type: toxicity, cell-based; conditions: human
[23] = Hemolytic activity in rabbit erythrocytes assessed as hemolysis at 10 to 100 uM relative to control; type: toxicity, cell-based, Oryctolagus cuniculus, Erythrocyte; conditions: dose 10-100 µM, read-out: Activity
[24] = Inhibition of Candida auris 0029 JMJD3 by absorbance based analysis; set-up: species or system Candidozyma auris
[25] = Inhibition of Cryptococcus neoformans H99 JMJD3 by absorbance based analysis
Candida albicans = assay: Synergistic antifungal activity against Candida albicans assessed as inhibition of fungal growth incubated in presence of fluconazole; type: functional, organism-based
[26] = Metabolic stability in mouse liver microsome assessed as clearance; type: ADME; conditions: liver microsomes, read-out: CLH
[27] = Metabolic stability in mouse liver microsome assessed as half life; type: ADME; conditions: liver microsomes
[Candida] auris [28] = Synergistic antifungal activity against Candida auris 0029 assessed as inhibition of fungal growth incubated in presence of fluconazole; type: functional, organism-based; conditions: Candidozyma auris
Cryptococcus neoformans [29] = assay: Antifungal activity against Cryptococcus neoformans H99 assessed as inhibition of cell growth at 4 microg/ml measured for 72 hrs; type: functional, organism-based; conditions: dose 4.0 µg/ml
Cryptococcus neoformans [30] = assay: Antibiofilm activity against Cryptococcus neoformans H99 assessed as inhibition of capsule formation at 1 microg/ml incubated for 48 hrs by laser confocal microscopic analysis; type: functional, organism-based; conditions: dose 1.0 µg/ml
Cryptococcus neoformans [31] = assay: Antibiofilm activity against Cryptococcus neoformans H99 assessed as inhibition of biofilm formation at 1 microg/ml incubated for 24 hrs by XTT reduction assay; type: functional, organism-based; conditions: dose 1.0 µg/ml
[Candida] auris [32] = Antibiofilm activity against Candida auris 0029 assessed as inhibition of biofilm formation upto […] microg/ml incubated for 24 hrs by XTT reduction assay; type: functional, organism-based; conditions: Candidozyma auris, dose <= 64.0 µg/ml
Cryptococcus neoformans [33] = assay: Antibiofilm activity against Cryptococcus neoformans H99 assessed as inhibition of biofilm formation upto […] microg/ml incubated for 24 hrs by XTT reduction assay; type: functional, organism-based; conditions: dose <= 64.0 µg/ml

With `OC(Cn1cncn1)(Cn1cncn1)c1ccc(F)cc1F` [FLUCONAZOLE] the MIC (Cryptococcus neoformans [1]) was 4 µg/mL, the Activity ([Candida] auris [2]) was “inactive” and the Activity (Cryptococcus neoformans [3]) was 4.97%. For the same compound, the Activity ([Candida] auris [4]) was 100%, the Activity ([Candida] auris [5]; dose 16.0 µg/ml) was “inactive” and the Activity (Cryptococcus neoformans [6]) was “inactive”. The Activity (Cryptococcus neoformans [7]) was 4.24%, the MIC (Cryptococcus neoformans [8]) was 2 µg/mL and the MIC (Cryptococcus neoformans [9]) was 4 µg/mL. For the same compound, the Activity (Cryptococcus neoformans [10]) was 42.51%, the MIC (Cryptococcus neoformans [11]) was 4 µg/mL and the MIC80 ([Candida] auris [12]) was greater than 64 µg/mL. For the same compound, the MIC (Cryptococcus neoformans [13]) was 2 µg/mL, the MIC80 ([Candida] auris [14]) was 16 µg/mL (≈ 52.2 µM) and the MIC (Cryptococcus neoformans [15]) was 4 µg/mL. For the same compound, the Activity ([Candida] auris [16]; dose 64.0 µg/ml) was “inactive”, the Activity (Cryptococcus neoformans [17]) was “Active” and the Activity (Cryptococcus neoformans [18]) was 48.28%. The Activity (Cryptococcus neoformans [19]) was “inactive” and the MIC80 (Cryptococcus neoformans [20]) was 2 µg/mL (≈ 6.53 µM).
In the case of `O=c1n(-c2ccccn2)c2ccccc2n1-c1ccc(Cl)cn1`, the MIC80 ([Candida] auris [12]) is reported as greater than 64 µg/mL, the MIC80 ([Candida] auris [14]) is reported as greater than 64 µg/mL and the MIC80 (Cryptococcus neoformans [20]) is reported as 64 µg/mL (≈ 198 µM).
Work on `N#Cc1ccc(NN=C(c2ccccn2)c2ccccn2)nc1` yielded a solubility [21] of 3.93 µg/mL (≈ 13.1 µM), an MIC80 ([Candida] auris [12]) of 2 µg/mL (≈ 6.66 µM) and an MIC80 ([Candida] auris [14]) of 0.125 µg/mL (≈ 0.416 µM). The MIC80 (Cryptococcus neoformans [20]) was 0.5 µg/mL (≈ 1.66 µM).
`FC(F)(F)c1ccc(N/N=C(\c2ccccc2)c2ccccn2)cc1` showed an MIC80 ([Candida] auris [12]) greater than 64 µg/mL, an MIC80 ([Candida] auris [14]) greater than 64 µg/mL and an MIC80 (Cryptococcus neoformans [20]) of 32 µg/mL (≈ 93.7 µM).
For `Clc1ccc(N/N=C(\c2ccc(Cl)cc2)c2ccccn2)cc1`, the MIC80 ([Candida] auris [12]) was greater than 64 µg/mL, the MIC80 ([Candida] auris [14]) was greater than 64 µg/mL and the MIC80 (Cryptococcus neoformans [20]) was 32 µg/mL (≈ 93.5 µM).
Compound `FC(F)(F)c1ccc(N/N=C(/c2ccccc2)c2ccccn2)cc1` has an MIC80 ([Candida] auris [12]) greater than 64 µg/mL, an MIC80 ([Candida] auris [14]) greater than 64 µg/mL and an MIC80 (Cryptococcus neoformans [20]) greater than 64 µg/mL.
Work on `Clc1ccc(N/N=C(\c2ccccc2)c2ccccn2)cc1` yielded an MIC80 ([Candida] auris [12]) greater than 64 µg/mL, an MIC80 ([Candida] auris [14]) greater than 64 µg/mL and an MIC80 (Cryptococcus neoformans [20]) of 32 µg/mL (≈ 104 µM).
For `Fc1ccc(N/N=C(\c2ccccc2)c2ccccn2)cc1`, the MIC80 ([Candida] auris [12]) was 32 µg/mL (≈ 110 µM), the MIC80 ([Candida] auris [14]) was 8 µg/mL (≈ 27.5 µM) and the MIC80 (Cryptococcus neoformans [20]) was 32 µg/mL (≈ 110 µM).
With `Clc1ccc(N/N=C(\c2ccccc2)c2ccccn2)nc1` the MIC (Cryptococcus neoformans [1]) was 64 µg/mL, the MFC ([Candida] auris [2]) was 256 µg/mL (≈ 829 µM) and the IC50 [22] was 79 nM. For the same compound, the hemolysis at 100 µM [23] was less than 3%, the IC50 [24] was 5 nM and the IC50 [25] was 168 nM. For the same compound, the inhibition at 16 µg/mL ([Candida] auris [5]) was 100%, the Activity (Candida albicans) was “inactive” and the solubility [21] was 0.54 µg/mL (≈ 1.75 µM). The MIC (Cryptococcus neoformans [8]) was 1 µg/mL, the CLint scaled [26] was 159 mL/min/kg and the MIC (Cryptococcus neoformans [9]) was 8 µg/mL. It also gave a half-life [27] of 34.3 min, an MIC (Cryptococcus neoformans [11]) of 8 µg/mL and an MIC80 ([Candida] auris [12]) of 2 µg/mL (≈ 6.48 µM). The MIC (Cryptococcus neoformans [13]) was 4 µg/mL, the MIC80 ([Candida] auris [14]) was 0.125 µg/mL (≈ 0.405 µM) and the MIC (Cryptococcus neoformans [15]) was 64 µg/mL. For the same compound, the inhibition at 64 µg/mL ([Candida] auris [16]) was 100%, the Activity ([Candida] auris [28]) was “inactive” and the Activity (Cryptococcus neoformans [29]) was “Active”. For the same compound, the Activity (Cryptococcus neoformans [30]) was “Active”, the Activity (Cryptococcus neoformans [31]) was “inactive” and the MFC (Cryptococcus neoformans [19]) was 16 µg/mL (≈ 51.8 µM). The Activity ([Candida] auris [32]) was “Active”, the MIC80 (Cryptococcus neoformans [20]) was 0.5 µg/mL (≈ 1.62 µM) and the Activity (Cryptococcus neoformans [33]) was “Active”.
`FC(F)(F)c1ccc(NN=C(c2ccccn2)c2ccccn2)cc1` gave an MIC80 ([Candida] auris [12]) greater than 64 µg/mL, an MIC80 ([Candida] auris [14]) greater than 64 µg/mL and an MIC80 (Cryptococcus neoformans [20]) of 16 µg/mL (≈ 46.7 µM).
